Experimental data: US10945938B2, “Lactone-containing compositions for malodor elimination” (Takasago International Corporation, priority 2014, dated 2021)
Several values for one entry are separate records, joined by “and”; a condition that tells them apart may be missing. Equal entries are not always repeated.

What was measured:
[1] = Methyl mercaptan suppression analysis by GC-PFPD, non-aqueous (ethanol) conditions (Examples 5-9); conditions: for Methyl Mercaptan Suppression (%): 200 proof ethanol, 10 ppm methyl mercaptan sodium salt, room temperature 2 hours
Description: (§1) Methyl mercaptan suppression analysis was used to evaluate malodor elimination effects of the compounds. Methyl mercaptan is known to be a major oral malodor material. For example, methyl mercaptan is found in the oral cavity of halitosis patients and also found in malodor producing food products (e.g., garlic). A multipurpose sampler (MPS 2, Gerstel Inc, Baltimore Md.)—Gas Chromatography (6890N, Agilent Technologies Inc, Wilmington Del.) with the Pulsed Flame Photometric Detector (PFPD, model 5380, OI Analytical, College Station, Tx) was used for the methyl mercaptan analysis. 0.5% (w/v) sodium thiomethoxide, which is a sodium salt of methyl mercaptan (purchased from Aldrich chemical company, Inc. Allentown, Pa.) in deionized water was used as the methyl mercaptan stock solution, which was freshly prepared for every test day.
For the screening test, 100 ppm lactone (20 μl of 0.5% of lactone in 200 proof ethanol (w/v)), 300 ppm lactone (30 μl of 1% of lactone in 200 proof ethanol (w/v)), 200 ppm phenolic compound (20 μl of 1% of phenolic compound in 200 proof ethanol (w/v)) and 300 ppm phenolic compound (30 μl of 1% of phenolic compound in 200 proof ethanol (w/v)) were tested. In addition, various combinations of a lactone and a phenolic compound were tested. The lactones and phenolic compounds were pipetted into 2 ml GC vials, and 200 proof ethanol was added up to 1000 μl. The prepared vial was placed on a sample tray of the multipurpose sampler-GC-PFPD. 2 μl methyl mercaptan stock solution was added in the GC vial utilizing the multipurpose sampler, and the vial was left to sit at room temperature for 2 hours. 0.4 μl of the test solution was injected into the GC inlet (an Agilent tapered focus liner with glass wool was installed, split mode, 10:1 split ratio) using the multipurpose sampler. The carrier gas flow rate was 1.5 ml/min (in constant flow mode) and the Agilent DB-1 MS UI column (L60 m×ID 0.250 mm×thickness 0.25 μm) was used for the analysis. The temperature of the GC oven started at 40° C. and after 5 minutes, the temperature was increased to 180° C. at a speed of 20° C./min, and subsequently to 280° C. at a speed of 40° C./min, which was held for 5 minutes.
200 proof ethanol alone was used as a blank control. The final concentration of the methyl mercaptan sodium salt was 10 ppm.
Malodor (methyl mercaptan) suppression was calculated as follows: Malodor (methyl mercaptan) Suppression (%)=(GC area of blank control sample−GC area of test sample)/GC area of blank control sample×100.

[2] = Methyl mercaptan suppression analysis by GC-PFPD, aqueous conditions (Examples 1-4); conditions: for Methyl Mercaptan Suppression (%): ethanol/deionized water, about 10 ppm methyl mercaptan sodium salt, room temperature 2 hours, replicate values; for suppression of the amount of methyl mercaptan (in words): lactone alone, 100 or 200 ppm, aqueous conditions, Tables 1-4
Description: as §1
200 ppm or 100 ppm lactone (36 μl of 1% (200 ppm) or 0.5% (100 ppm) (w/v) of the test malodor eliminating compounds in 200 proof ethanol), 144 μl of 200 proof ethanol, and 1620 μl of deionized water were added into a 2 ml GC vial. The prepared vial was placed on a sample tray of the multipurpose sampler-GC-PFPD. 3.6 μl of methyl mercaptan stock solution was added in the GC vial using the multipurpose sampler, and the GC vial was left to sit at room temperature for 2 hours. 0.4 μl of the test solution was injected into the GC inlet (an Agilent tapered focus liner with glass wool was installed, split mode, 10:1 split ratio) using the multipurpose sampler. The carrier gas flow rate was 1.5 ml/min (in constant flow mode) and the Agilent DB-1MS UI column (L60 m×ID 0.250 mm×thickness 0.25 μm) was used for the analysis. […] The GC oven was held at 280° C. for 5 minutes. Ethanol alone was used as a blank control. The final concentration of test malodor eliminating compounds were 200 ppm or 100 ppm, and final methyl mercaptan sodium salt concentration was about 10 ppm.
Malodor (methyl mercaptan) suppression was calculated as follows: Malodor (methyl mercaptan) Suppression (%)=(GC area of blank control sample−GC area of test sample)/GC area of blank control sample×100.

[3] = 300 ppm test compound alone, replicate values
[4] = 200 ppm test compound alone, values of several testing sets

| SMILES | Methyl Mercaptan Suppression (%) [1, 3] | suppression of the amount of methyl mercaptan (in words) [2] | Methyl Mercaptan Suppression (%) ([2]; 100 ppm test compound alone) | further results |
| --- | --- | --- | --- | --- |
| C=CCc1ccc(O)c(OC)c1 [eugenol] | 8% and 14% and 11% |  |  |  |
| CC1=C2CCC(C)CC2OC1=O (stereo not shown) [mint lactone] |  | suppressed the amount of methyl mercaptan |  | Methyl Mercaptan Suppression (%) ([2]; 200 ppm test compound alone): 87% and 100% (2×) |
| O=C1O[C@H]([C@@H](O)CO)C(O)=C1O [ascorbic acid, reference compound] |  |  |  | Methyl Mercaptan Suppression (%) [1, 4]: 11%; synergistic malodor suppression or elimination effect of the combination with a phenolic compound (in words) ([1]; ethanol conditions, combination compared with additive effect of single components): do not exhibit a synergistic malodor elimination effect when combined with phenolic compounds |
| CCCCOCc1ccc(O)c(OC)c1 [Hotact ®VBE, vanillyl butyl ether] | 13% (2×) and 10% |  |  | Methyl Mercaptan Suppression (%) [1, 4]: 13% and 7% and 8% and 10% and 12% and 17% |
| COC(=O)c1ccccc1O [methyl salicylate] | 9% and 10% and 8% |  |  |  |
| O=C1C=CCO1 [2(5H) furanone] |  | suppressed the amount of methyl mercaptan | 97% and 95% and 100% |  |
| CC1C=CC(=O)O1 (stereo not drawn) [angelica lactone beta] |  | suppressed the amount of methyl mercaptan | 10% and 26% and 41% |  |
| CC1=CCC(=O)O1 [angelica lactone alpha] | 32% and 22% and 30% | suppressed the amount of methyl mercaptan | 47% and 31% and 69% | Methyl Mercaptan Suppression (%) ([2]; 200 ppm test compound alone): 94% and 93% and 86% |
